# Measurements: patent US11162123B2, “Glutamine synthetase reaction and method for quantifying ammonia utilizing the same” (ARKRAY, Inc., priority 2017, dated 2021)
# Read-outs that look alike come from different tables or passages of the source.
# Key:
# glutamine synthetase [1] = system: glutamine synthetase
# Procedure: (§1) Reagent A was mixed with a sample immediately before the reaction, and then reagent B was added to the resulting mixture to perform the reaction. The ammonia concentration was measured based on the increase in the absorbance at 340 nm during the period of 300 seconds after the beginning of the reaction. To the sample, calcium was added at various concentrations (180, 340, 530, or 700 ppm). The liquid volumes of the reagents were as follows: reagent A, 140 μL; reagent B, 35 μL; sample, 10 μL.
# Subsequently, in what step calcium affects the ammonia measurement reaction was investigated. […] Since ADP is a substrate of ADP-dependent hexokinase, the effect of calcium in the sample on the reactions of enzymes excluding glutamine synthetase can be investigated. Similarly, each of G6P and NADH was added as a sample to the reaction system to investigate the reaction using G6P or NADH as a substrate.
# glutamine synthetase [2] = system: glutamine synthetase; remark: listed apart in the source
# Procedure: After mixing the components, a base material was impregnated therewith. After drying the base material, a test liquid (10,000 N-μg/dL aqueous ammonia solution supplemented with 0, 10, 30, 60, or 80 ppm calcium) was added thereto, followed by allowing the reaction to proceed at room temperature for 300 seconds and then measuring the reflectance (ΔR). By calculating the difference (ΔR) between the reflectance R of the sample to which calcium was not added and the reflectance R of each sample to which calcium was added, the effect of calcium in the ammonia measurement system can be investigated.
# [3] = target: Glutamine synthetase (GST) (Homo sapiens, UniProt P15104); details: known from the art; cited from earlier work
# [4] = system: enzymes excluding glutamine synthetase; test: liquid reaction system with ADP, G6P or NADH added as sample (enzymes excluding glutamine synthetase); assay type: biochemical
# Procedure: as §1
# Since ADP is a substrate of ADP-dependent hexokinase, the effect of calcium in the sample on the reactions of enzymes excluding glutamine synthetase can be investigated. Similarly, each of G6P and NADH was added as a sample to the reaction system to investigate the reaction using G6P or NADH as a substrate.
# Glutamine synthetase (GST), sequence (P15104 whole entry, species assumed): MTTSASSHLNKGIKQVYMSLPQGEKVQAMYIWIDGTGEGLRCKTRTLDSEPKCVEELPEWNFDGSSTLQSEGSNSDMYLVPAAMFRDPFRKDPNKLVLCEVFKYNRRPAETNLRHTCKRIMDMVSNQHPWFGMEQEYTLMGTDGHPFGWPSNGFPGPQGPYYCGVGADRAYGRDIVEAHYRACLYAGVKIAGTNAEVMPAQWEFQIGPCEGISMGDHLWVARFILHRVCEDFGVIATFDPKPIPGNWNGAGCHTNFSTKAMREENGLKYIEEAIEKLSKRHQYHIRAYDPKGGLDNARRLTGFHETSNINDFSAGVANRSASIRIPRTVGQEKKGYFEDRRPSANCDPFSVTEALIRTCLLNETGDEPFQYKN
compound,measurement,setting,value
"O=C(O)CN(CCN(CC(=O)O)CC(=O)O)CC(=O)O [EDTA, ethylenediaminetetraacetic acid, reference compound]",measured value of ammonia versus calcium concentration,"glutamine synthetase [1]; addition of EDTA (2.00 mM in reagent A), calcium 180-700 ppm in sample",does not change dependently on the calcium concentration
same,change in reflectance (change in ΔR) caused by calcium,"glutamine synthetase [2]; addition of 5, 10 or 20 mM EDTA",improved the change in the reflectance
CS(=N)(=O)CC[C@H](N)C(=O)O (stereo partly drawn) [L-methionine sulfoximine],inhibition of glutamine synthetase,[3],inhibited
[Ca+2] [calcium],"effect of calcium on measured value, ADP added as sample","[4]; ADP as sample, with and without EDTA",disappearance of the effect of calcium
same,"effect of calcium on measured value, G6P or NADH added as sample",[4]; G6P or NADH as sample,no effect of calcium was found
same,step of the ammonia measurement reaction affected by calcium,glutamine synthetase [1]; conclusion from substrate-addition experiments,affects glutamine synthetase in the first step
same,measured value of ammonia versus calcium concentration,"glutamine synthetase [1]; no addition of EDTA, calcium 180, 340, 530 or 700 ppm in sample, absorbance 340 nm, 300 seconds",decreases dependently on the calcium concentration
same,"measured value (reflectance, ΔR) versus calcium concentration","glutamine synthetase [2]; no EDTA, test liquid with 0, 10, 30, 60 or 80 ppm calcium, room temperature, 300 seconds",changed dependently on the calcium concentration
CP(=O)(O)CC[C@H](N)C(=O)O [phosphinothricin],inhibition of glutamine synthetase,[3],inhibited
